Assay [1] has as its target farnesyl protein transferase (Homo sapiens, UniProt P49354+P49356). As to the kind of experiment: FPT IC50 (inhibition of farnesyl protein transferase, in vitro enzyme assay). The class given is biochemical. To be noted: procedures described in WO 95/10516. The procedure: (§1) FPT IC50 (inhibition of farnesyl protein transferase, in vitro enzyme assay), COS Cell IC50 (Cell-Based Assay), GGPT IC50 (inhibition of geranylgeranyl protein transferase, in vitro enzyme assay), Cell Mat Assay, and anti-tumor activity (in vivo anti-tumor studies) are determined by the assay procedures described in WO 95/10516.

The subject of assay [2] is Ras processing in COS cells. As to the kind of experiment: COS Cell IC50 (Cell-Based Assay), inhibition of Ras processing. As to conditions: procedures described in WO 95/10516. The procedure:
as §1

From patent US5852034A, “Benzo(5,6)cycloheptapyridine cyclic ureas and lactams useful as farnesyl protein transferase inhibitors” (Schering Corporation, priority 1997, dated 1998) come the findings set out here.

Consider `O=C(CN1CCCC1=O)N1CCC([C@H]2c3ncc(Br)cc3CCc3cc(Cl)cc(Br)c32)CC1` [Example 1, (+)-4-(3,10-Dibromo-8-chloro-6,11-dihydro-5H-benzo[5,6]cyclohepta-[1,2-b]pyridin-11-yl)-1-[(2-oxo-1-pyrrolidinyl)acetyl]piperidine], for which the IC50 in assay [1] turned out to be 4 nM; in assay [2], 500 nM.
With `O=C1CCCN1CCCC(=O)N1CCC([C@H]2c3ncc(Br)cc3CCc3cc(Cl)cc(Br)c32)CC1` [Example 3, (+)-4-(3,10-Dibromo-8-chloro-6,11-dihydro-5H-benzo[5,6]cyclohepta-[1,2-b]pyridin-11-yl)-1-[1-oxo-4-(2-oxo-1-pyrrolidinyl)butyl]piperidine], the half-inhibitory concentration (IC50) in assay [1] is 85 nM.
On the same count and under the same terms, the result for `O=C(CN1CCCCC1=O)N1CCC([C@H]2c3ncc(Br)cc3CCc3cc(Cl)cc(Br)c32)CC1` [Example 4, (+)-4-(3,10-Dibromo-8-chloro-6,11-dihydro-5H-benzo[5,6]cyclohepta-[1,2-b]pyridin-11-yl)-1-[(2-oxo-1-piperidinyl)acetyl]piperidine] reads 2.8 nM; that for `O=C1CCCCN1CCC(=O)N1CCC([C@H]2c3ncc(Br)cc3CCc3cc(Cl)cc(Br)c32)CC1` [Example 5, (+)-4-(3,10-Dibromo-8-chloro-6,11-dihydro-5H-benzo[5,6]cyclohepta-[1,2-b]pyridin-11-yl)-1-[1-oxo-3-(2-oxo-1-piperidinyl)propyl]piperidine], 19 nM; that for `O=C1CCCCN1CCCC(=O)N1CCC([C@H]2c3ncc(Br)cc3CCc3cc(Cl)cc(Br)c32)CC1` [Example 6, (+)-4-(3,10-Dibromo-8-chloro-6,11-dihydro-5H-benzo[5,6]cyclohepta-[1,2-b]pyridin-11-yl)-1-[1-oxo-4-(2-oxo-1-piperidinyl)butyl]piperidine], 80 nM.
Molecule `O=C(CN1CCNC1=O)N1CCC([C@H]2c3ncc(Br)cc3CCc3cc(Cl)cc(Br)c32)CC1` [Example 7, (+)-4-(3,10-Dibromo-8-chloro-6,11-dihydro-5H-benzo[5,6]cyclohepta-[1,2-b]pyridin-11-yl)-1-[(2-oxo-1-imidazolidinyl)acetyl]piperidine] had an IC50 in assay [1] of 23 nM.
On the same count and under the same terms, under `O=C(CCCN1CCNC1=O)N1CCC([C@H]2c3ncc(Br)cc3CCc3cc(Cl)cc(Br)c32)CC1` [Example 9] stands 16 nM.
For `O=C(CN1CCCNC1=O)N1CCC([C@H]2c3ncc(Br)cc3CCc3cc(Cl)cc(Br)c32)CC1` [Example 10, (+)-4-(3,10-Dibromo-8-chloro-6,11-dihydro-5H-benzo[5,6]cyclohepta-[1,2-b]pyridin-11-yl)-1-[(hexahydro-2-oxo-1-pyrimidinyl)acetyl]piperidine], the IC50 was 3.2 nM in assay [1] and 16 nM in assay [2].
`O=C(CCN1CCCNC1=O)N1CCC([C@H]2c3ncc(Br)cc3CCc3cc(Cl)cc(Br)c32)CC1` [Example 11, (+)-4-(3,10-Dibromo-8-chloro-6,11-dihydro-5H-benzo[5,6]cyclohepta-[1,2-b]pyridin-11-yl)-1-[1-oxo-3-(hexahydo-2-oxo-1-pyrimidinyl)-oxopropyl]piperidine]: the IC50 in assay [1] was 20 nM. That is a double-digit nanomolar value.
Molecule `O=C(CCCN1CCCNC1=O)N1CCC([C@H]2c3ncc(Br)cc3CCc3cc(Cl)cc(Br)c32)CC1` [Example 12, (+)-4-(3,10-Dibromo-8-chloro-6,11-dihydro-5H-benzo[5,6]cyclohepta[1,2-b]pyridin-11-yl)-1-[4-(hexahydo-2-oxo-1-pyrimidinyl)oxobutyl]piperidine] registered an IC50 in assay [1] of 56 nM.

In general, IC50 refers to the concentration that gives 50% inhibition.
